# Source: patent US7704985B2, “Treatment of irritable bowel syndrome and related bowel diseases” (The Board of Regents of the University of Texas System, priority 2002, dated 2010)
# Test system: acetic acid sensitized rats
# Assay: Behavioral response to graded colorectal distention (CRD) in neonatally acetic acid sensitized rats
# Format: in vivo, Sprague Dawley rat
# Details: oral, 1.5 mg/kg body weight in corn oil daily for two weeks; graded CRD 10 mm-80 mm Hg; behavioral response grading 0-3
# Experimental: Neonatal sensitization with acetic acid: Description of the model. It was previously shown that transient noxious stimulation of the colon during postnatal development can cause long-lasting hyperalgesia, despite complete resolution of the initiating event. In a variation of this technique, 0.3% acetic acid was instilled into the rectum of rats at postnatal days 7-10. […] By contrast, when rats are treated with acetic acid as adults, and tested after a similar period of time, no sensitization is observed. Sprague Dawley rat pups were sensitized on neonatal day 10 with acetic acid. In brief, a thin polyethylene tubing (P-90 was introduced gently into the rectum 2 cm from the anus. 0.2 ml of 0.5% glacial acetic acid in normal saline was injected through the tube into the colo rectum. The pups were allowed to grow into adults. When the rats were approximately eight weeks old they were weighed and their behavioral responses to graded (10 mm-80 mm Hg) colo rectal distention (CRD) was determined. Under light brevital (1%) anesthesia a polyethelene tube connected to a balloon (made out of a glove finger) was guided into the colo-rectum ˜8 cms from the rectum and the tube was fastened to the tail. The open end was connected to the barostat device. The rat was put into a rat restrainer allowing limited movement. […]
compound,measurement,value
CCC(=O)OCC(=O)[C@@]1(OC(=O)CC)[C@@H](C)C[C@H]2[C@@H]3CCC4=CC(=O)C=C[C@]4(C)[C@@]3(Cl)[C@@H](O)C[C@@]21C [beclamethasone dipropionate],pain threshold to graded CRD compared to the vehicle treated group,higher pain threshold
